What was measured:
leucine dehydrogenase = leucine dehydrogenase (Bacillus subtilis, UniProt P54531); details: cited from earlier work
[1] = Polystyrene-water partition of citral; assay type: physicochemical
Source text: The polymer matrix should not dissolve through bulk degradation or boundary degradation as it is very inert and unreactive, plus divinylbenzene provides additional stability. […] This is extremely high: its predicts the existence of approximately 5000 molecules of citral within the nanocapsule core or polystyrene shell for every molecule in surrounding water. This dictates a fixed equilibrium between concentration in polystyrene nanocapsule Cp and surrounding water Cw given by the equation: Cp/Cw=10^3.7=5011

Sequence of leucine dehydrogenase (P54531 whole entry): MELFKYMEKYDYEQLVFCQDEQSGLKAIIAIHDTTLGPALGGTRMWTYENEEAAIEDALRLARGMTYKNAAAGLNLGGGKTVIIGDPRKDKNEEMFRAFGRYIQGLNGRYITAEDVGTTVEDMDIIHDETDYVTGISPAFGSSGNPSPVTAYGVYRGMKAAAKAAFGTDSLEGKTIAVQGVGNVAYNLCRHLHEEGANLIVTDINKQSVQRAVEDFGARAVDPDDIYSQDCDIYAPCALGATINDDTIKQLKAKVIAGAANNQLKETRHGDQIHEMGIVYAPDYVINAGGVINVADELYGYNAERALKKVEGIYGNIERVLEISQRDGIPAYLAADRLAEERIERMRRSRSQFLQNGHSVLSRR

CC(C)=CCCC(C)=CC=O [citral]
Binding affinity compared with branched chain amino acids (leucine dehydrogenase): higher binding affinity | Molecules within the nanocapsule core or polystyrene shell for every molecule in surrounding water [1]: approximately 5000

— patent US20190343190A1, “MATERIALS INCLUDING POLYMERIC FIBERS INCORPORATING MICROCAPSULES OR NANOCAPSULES INCLUDING AN ESSENTIAL OIL” (President and Fellows of Harvard College, priority 2016, published 2019)
